In US12102648B2, “Orally-bioavailable nucleoside analogs” (priority 2021, dated 2024) one finds Papp A→B, Papp B→A and efflux ratio data, which are given here for 20 compounds.

The data set is described as follows: in vitro. Type of data set: in vitro ADME. To be noted: human. The method, boiled down:
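Permeability measured in both directions across 19-day Caco-2 layers with TEER above 600 […], incubated at 37° C without shaking; donor and receiver sampled at 10 and 90 min for LC/MS/MS. Derived values: Papp (cm/s), efflux ratio, recovery.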

[1] abbreviates: Caco-2 monolayer, apical to basolateral, 90-minute incubation, read-out: Papp, A-B.
[2] abbreviates: Caco-2 monolayer, basolateral to apical, 90-minute incubation, read-out: Papp, B-A.
The mark [3] stands for this setting: Caco-2 monolayer, ER>2 indicates potential efflux transporter substrate, read-out: ER (efflux ratio).

Read-outs that look alike come from different tables or passages of the source.

The Papp A→B is the apparent permeability from the apical to the basolateral side of a cell layer. What is called Papp B→A is the apparent permeability from the basolateral to the apical side of a cell layer. Turning to `CC(C)[C@H](N)C(=O)Nc1ncnn2c([C@]3(C#N)O[C@H](COC(=O)[C@@H](N)C(C)C)[C@@H](O)[C@H]3O)ccc12` [Compound 110, ((2R,3S,4R,5R)-5-(4-((S)-2-amino-3-methylbutanamido)pyrrolo[2,1-f][1,2,4]triazin-7-yl)-5-cyano-3,4-dihydroxytetrahydrofuran-2-yl)methyl L-valinate], where the note is “Caco-2”, the apparent permeability from apical to basolateral (Papp A→B) at 90 min was found to be 0.02 ×10⁻⁶ cm/s, the Papp B→A at 90 min is 0.33 ×10⁻⁶ cm/s and the efflux ratio at 90 min is 15.
As to `N#C[C@@]1(c2ccc3c(N)ncnn23)O[C@H](COC(=O)C[C@H]2CC[C@H](N)CC2)[C@@H](O)[C@H]1O` [Compound 266, ((2R,3S,4R,5R)-5-(4-aminopyrrolo[2,1-f][1,2,4]triazin-7-yl)-5-cyano-3,4-dihydroxytetrahydrofuran-2-yl)methyl 2-((1r,4R)-4-aminocyclohexyl)acetate], under “Caco-2”, the Papp A→B at 90 min was 0.19 ×10⁻⁶ cm/s, the Papp B→A at 90 min is 0.38 ×10⁻⁶ cm/s and the efflux ratio at 90 min is 2.
The matching figures for `N#C[C@@]1(c2ccc3c(N)ncnn23)O[C@H](COC(=O)CC2CCC(C(F)(F)F)CC2)[C@@H](O)[C@H]1O` (stereo partly drawn) [Compound 270, ((2R,3S,4R,5R)-5-(4-aminopyrrolo[2,1-f][1,2,4]triazin-7-yl)-5-cyano-3,4-dihydroxytetrahydrofuran-2-yl)methyl 2-(4-(trifluoromethyl)cyclohexyl)acetate]: 1.9 ×10⁻⁶ cm/s, 6.9 ×10⁻⁶ cm/s and 3.7.
The matching figures for `CC(C)C(=O)OC[C@H]1O[C@@](C#N)(c2ccc3c(N)ncnn23)[C@H](O)[C@@H]1OC(=O)C(C)C` [Compound 62, (2R,3S,4R,5R)-5-(4-aminopyrrolo[2,1-f][1,2,4]triazin-7-yl)-5-cyano-4-hydroxy-2-((isobutyryloxy)methyl)tetrahydrofuran-3-yl isobutyrate]: 3 ×10⁻⁶ cm/s, 2.4 ×10⁻⁶ cm/s and 0.8.
In the case of `CC(C)C(=O)OC[C@H]1O[C@@](C#N)(c2ccc3c(N)ncnn23)[C@H](O)[C@@H]1OC(=O)Cc1ccccc1` [Compound 60, ((2R,3S,4R,5R)-5-(4-aminopyrrolo[2,1-f][1,2,4]triazin-7-yl)-5-cyano-4-hydroxy-3-(2-phenylacetoxy)tetrahydrofuran-2-yl)methyl isobutyrate], the Papp A→B at 90 min under setting [1] turned out to be 2.8 ×10⁻⁶ cm/s. Further, the apparent permeability from basolateral to apical (Papp B→A) at 90 min under setting [2] was determined as 1.7 ×10⁻⁶ cm/s. Also, the efflux ratio at 90 min under setting [3] was 0.58.
The matching figures for `CC(C)(C)C(=O)OCO[C@H]1[C@@H](O)[C@](C#N)(c2ccc3c(N)ncnn23)O[C@@H]1COC(=O)Cc1ccccc1` [Compound 48, {[(2R,3S,4R,5R)-5-{4-aminopyrrolo[2,1-f][1,2,4]triazin-7-yl}-5-cyano-4-hydroxy-2-{[(2-phenylacetyl)oxy]methyl}oxolan-3-yl]oxy}methyl 2,2-dimethylpropanoate]: 6.9 ×10⁻⁶ cm/s, 1.9 ×10⁻⁶ cm/s and 0.27.
For `N#C[C@@]1(c2ccc3c(NC(=O)c4ccccc4)ncnn23)O[C@H](COC(=O)Cc2ccccc2)[C@@H](O)[C@H]1O` [Compound 105, ((2R,3S,4R,5R)-5-(4-benzamidopyrrolo[2,1-f][1,2,4]triazin-7-yl)-5-cyano-3,4-dihydroxytetrahydrofuran-2-yl)methyl 2-phenylacetate] the same measures were 0.77 ×10⁻⁶ cm/s, 1.4 ×10⁻⁶ cm/s and 1.8.
The matching figures for `CC(=O)O[C@H]1[C@@H](O)[C@](C#N)(c2ccc3c(N)ncnn23)O[C@@H]1COC(=O)Cc1ccccc1` [Compound 45, ((2R,3S,4R,5R)-3-acetoxy-5-(4-aminopyrrolo[2,1-f][1,2,4]triazin-7-yl)-5-cyano-4-hydroxytetrahydrofuran-2-yl)methyl 2-phenylacetate]: 0.8 ×10⁻⁶ cm/s, 3.4 ×10⁻⁶ cm/s and 4.3.
Take `CC(=O)O[C@H]1[C@@H](OC(C)=O)[C@](C#N)(c2ccc3c(N)ncnn23)O[C@@H]1COC(=O)C(C)(C)C1CCCCC1` [Compound 412, (2R,3R,4R,5R)-2-(4-aminopyrrolo[2,1-f][1,2,4]triazin-7-yl)-2-cyano-5-(((2-cyclohexyl-2-methylpropanoyl)oxy)methyl)tetrahydrofuran-3,4-diyl diacetate]: for the setting “Caco-2”, the apparent permeability from apical to basolateral (Papp A→B) at 90 min was 5.1 ×10⁻⁶ cm/s, the Papp B→A at 90 min was determined as 0.9 ×10⁻⁶ cm/s and the efflux ratio at 90 min turned out to be 0.2.
For `CC(C)[C@H](N)C(=O)Nc1ncnn2c([C@]3(C#N)O[C@H](CO)[C@@H](O)[C@H]3O)ccc12` [Compound 83, (2S)-2-amino-N-{7-[(2R,3R,4S,5R)-2-cyano-3,4-dihydroxy-5-(hydroxymethyl)oxolan-2-yl]pyrrolo[2,1-f][1,2,4]triazin-4-yl}-3-methylbutanamide] the same measures were 0.07 ×10⁻⁶ cm/s, 0.2 ×10⁻⁶ cm/s and 3.
The matching figures for `CC(C)(C)[C@@H](N)C(=O)OC[C@H]1O[C@@](C#N)(c2ccc3c(N)ncnn23)[C@H](O)[C@@H]1O` [Compound 411, ((2R,3S,4R,5R)-5-(4-aminopyrrolo[2,1-f][1,2,4]triazin-7-yl)-5-cyano-3,4-dihydroxytetrahydrofuran-2-yl)methyl (R)-2-amino-3,3-dimethylbutanoate]: 0.12 ×10⁻⁶ cm/s, 2.5 ×10⁻⁶ cm/s and 20.7.
The matching figures for `CC(C)[C@H](N)C(=O)Nc1ncnn2c([C@]3(C#N)O[C@H](CO)[C@@H](OC(=O)[C@@H](N)C(C)C)[C@H]3O)ccc12` [Compound 129, (2R,3S,4R,5R)-5-{4-[(2S)-2-amino-3-methylbutanamido]pyrrolo[2,1-f][1,2,4]triazin-7-yl}-5-cyano-4-hydroxy-2-(hydroxymethyl)oxolan-3-yl (2S)-2-amino-3-methylbutanoate]: 0.03 ×10⁻⁶ cm/s, 0.02 ×10⁻⁶ cm/s and 0.7.
For `C[C@H](C(=O)OC[C@H]1O[C@@](C#N)(c2ccc3c(N)ncnn23)[C@H](O)[C@@H]1O)C1CCCCC1` [Compound 281, ((2R,3S,4R,5R)-5-(4-aminopyrrolo[2,1-f][1,2,4]triazin-7-yl)-5-cyano-3,4-dihydroxytetrahydrofuran-2-yl)methyl (S)-2-cyclohexylpropanoate], where the note is “Caco-2”, the Papp A→B at 90 min amounted to 13 ×10⁻⁶ cm/s, the basolateral-to-apical permeability (Papp B→A) at 90 min was 29 ×10⁻⁶ cm/s and the efflux ratio at 90 min was found to be 2.3.
For the compound `CCC(=O)O[C@H]1[C@@H](O)[C@](C#N)(c2ccc3c(N)ncnn23)O[C@@H]1COC(=O)Cc1ccccc1` [Compound 47, (2R,3S,4R,5R)-5-(4-aminopyrrolo[2,1-f][1,2,4]triazin-7-yl)-5-cyano-4-hydroxy-2-((2-phenylacetoxy)methyl)tetrahydrofuran-3-yl propionate], the Papp A→B at 90 min under setting [1] turned out to be 2 ×10⁻⁶ cm/s. In addition, the Papp B→A at 90 min under setting [2] came out at 5.1 ×10⁻⁶ cm/s. The efflux ratio at 90 min under setting [3] was determined as 2.5.
In the case of `CCCC(=O)Nc1ncnn2c([C@]3(C#N)O[C@H](COC(=O)CC4CCCCC4)[C@@H](OC(=O)[C@@H](N)C(C)C)[C@H]3O)ccc12` [Compound 350, (2R,3S,4R,5R)-5-(4-butyramidopyrrolo[2,1-f][1,2,4]triazin-7-yl)-5-cyano-2-((2-cyclohexylacetoxy)methyl)-4-hydroxytetrahydrofuran-3-yl L-valinate], for the setting “Caco-2”, the Papp A→B at 90 min stood at 1.9 ×10⁻⁶ cm/s, the Papp B→A at 90 min was 6.9 ×10⁻⁶ cm/s and the efflux ratio at 90 min came to 4.3.
Regarding `CC(C)CC(=O)OC[C@H]1O[C@@](C#N)(c2ccc3c(N)ncnn23)[C@H](O)[C@@H]1OC(=O)Cc1ccccc1` [Compound 20, ((2R,3S,4R,5R)-5-(4-aminopyrrolo[2,1-f][1,2,4]triazin-7-yl)-5-cyano-4-hydroxy-3-(2-phenylacetoxy)tetrahydrofuran-2-yl)methyl 3-methylbutanoate], the Papp A→B at 90 min under setting [1] came out at 10 ×10⁻⁶ cm/s. The Papp B→A at 90 min under setting [2] is 9.8 ×10⁻⁶ cm/s. Moreover, the efflux ratio at 90 min under setting [3] came to 1.
Consider `N#C[C@@]1(c2ccc3c(N)ncnn23)O[C@H](COC(=O)CC2CCC(F)(F)CC2)[C@@H](O)[C@H]1O` [Compound 262, ((2R,3S,4R,5R)-5-(4-aminopyrrolo[2,1-f][1,2,4]triazin-7-yl)-5-cyano-3,4-dihydroxytetrahydrofuran-2-yl)methyl 2-(4,4-difluorocyclohexyl)acetate], for which, under “Caco-2”, the Papp A→B at 90 min came to 0.91 ×10⁻⁶ cm/s, the basolateral-to-apical permeability (Papp B→A) at 90 min was found to be 4.4 ×10⁻⁶ cm/s and the efflux ratio at 90 min stood at 4.8.
The matching figures for `CNc1nc(N)nc2c1ncn2[C@@H]1O[C@H](COC(=O)C(C)C)[C@@H](OC(=O)C(C)C)[C@@]1(C)F` [Compound 227, (2R,3R,4R,5R)-5-(2-amino-6-(methylamino)-9H-purin-9-yl)-4-fluoro-2-((isobutyryloxy)methyl)-4-methyltetrahydrofuran-3-yl isobutyrate]: 8.5 ×10⁻⁶ cm/s, 3.2 ×10⁻⁶ cm/s and 0.4.
As for `N#C[C@@]1(c2ccc3c(N)ncnn23)O[C@H](COC(=O)CC2CCC2)[C@@H](O)[C@H]1O` [Compound 265, ((2R,3S,4R,5R)-5-(4-aminopyrrolo[2,1-f][1,2,4]triazin-7-yl)-5-cyano-3,4-dihydroxytetrahydrofuran-2-yl)methyl 2-cyclobutylacetate], where the note is “Caco-2”, the Papp A→B at 90 min is 0.29 ×10⁻⁶ cm/s, the Papp B→A at 90 min turned out to be 0.36 ×10⁻⁶ cm/s and the efflux ratio at 90 min turned out to be 1.2.
Consider `CC(C)CC(=O)OC[C@H]1O[C@@](C#N)(c2ccc3c(N)ncnn23)[C@H](O)[C@@H]1OC(=O)CC(C)C` [Compound 17, (2R,3S,4R,5R)-5-(4-aminopyrrolo[2,1-f][1,2,4]triazin-7-yl)-5-cyano-4-hydroxy-2-(((3-methylbutanoyl)oxy)methyl)tetrahydro furan-3-yl 3-methylbutanoate], for which, under “Caco-2”, the Papp A→B at 90 min came out at 15 ×10⁻⁶ cm/s, the Papp B→A at 90 min was found to be 21 ×10⁻⁶ cm/s and the efflux ratio at 90 min came out at 1.4.
